Earlier results in US7056858B2 (Varian, Inc., priority 2002, dated 2006).

Settings: for π value: dipolarity/dipolarizability descriptor; for Σα value: hydrogen-bond acidity descriptor; for Σβ value: hydrogen-bond basicity descriptor

NC=O [formamide]
π value: 0.46
Σα value: 0.33
Σβ value: 0.21

CN1CCCC1=O [N-methylpyrrolidone]
π value: 0.57
Σα value: 0.00
Σβ value: 0.43

CN(C)C=O [N,N dimethylformamide]
π value: 0.56
Σα value: 0.00
Σβ value: 0.44
